Measured values reported in EP4600261A1, “KERATIN YK93-2, AND PREPARATION METHOD THEREFOR, PHARMACEUTICAL COMPOSITION THEREOF AND USE THEREOF” (INSTITUTE OF MATERIA MEDICA, CHINESE ACADEMY OF MEDICAL …, priority 2022, dated 2024).
Counter-ions that a name gives are not always drawn.

Test system: mouse pain model
Experiment: mouse pain model, acetic acid-induced writhing
Assay type: in vivo, Male Kunming mice
Conditions: Tramadol Hydrochloride 50mg/kg, 1% acetic acid intraperitoneally, writhing within 15 minutes
Description: • Animals: Male Kunming mice; • Drugs: Tramadol Hydrochloride Sustained Release Tablets, Glacial acetic acid, YK93-2; • Instruments: electronic balance, timer
• Normal control group; • Positive control group: Tramadol Hydrochloride group; • Protein YK93-2, (2g/kg) group.
Mice in the YK93-2 (2g/kg) group were administered by gavage, while mice in the model group were given an equal volume of CMC-Na once a day for 7 consecutive days. 30 minutes after the last administration, 1% acetic acid was administered intraperitoneally, and the writhing times of mice within 15 minutes was recorded, and the inhibition rate of drug-induced writhing reaction was calculated. The observation criteria were concave abdominal cavity, extended hind limbs, and raised buttocks.
The inhibition rate was calculated by (Mean number of writhing reactions in the normal control group - Mean number of writhing reactions in the treatment group)/Mean number of writhing reactions in the normal control group * 100%.

SMILES: COc1cccc(C2(O)CCCCC2CN(C)C)c1 (stereo not shown) [Tramadol Hydrochloride]
- Number of writhing: significantly reduced
